Measurements as given in patent publication US9757375B2, “Compounds that inhibit human DNA ligases and methods of treating cancer” (University of Maryland, Baltimore, priority 2007, dated 2017).
Read-outs that look alike come from different tables or passages of the source.

Key:
hLigI = biological target: T1, hLigI (Homo sapiens, UniProt P18858); test: High-throughput fluorescence-based DNA joining (ligation) assay; assay type: biochemical
T1 construct: made in house
Summary of the method: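 Nicked DNA substrate (10 pmol) was incubated with 0.25 pmol hLigI, with or without 100 μmol/L test compound, in duplicate. Afterwards the DNA was denatured and renatured with a 20-fold excess of unmodified oligonucleotide. Ligation forms an AF488/BHQ1 hairpin, read as reduced fluorescence at 518 nm.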

human DNA ligase III = biological target: T2, human DNA ligase III (Homo sapiens, UniProt P49916); test: as above; assay type: biochemical
T2 sequence (P49916 1-862 isoform P49916-4): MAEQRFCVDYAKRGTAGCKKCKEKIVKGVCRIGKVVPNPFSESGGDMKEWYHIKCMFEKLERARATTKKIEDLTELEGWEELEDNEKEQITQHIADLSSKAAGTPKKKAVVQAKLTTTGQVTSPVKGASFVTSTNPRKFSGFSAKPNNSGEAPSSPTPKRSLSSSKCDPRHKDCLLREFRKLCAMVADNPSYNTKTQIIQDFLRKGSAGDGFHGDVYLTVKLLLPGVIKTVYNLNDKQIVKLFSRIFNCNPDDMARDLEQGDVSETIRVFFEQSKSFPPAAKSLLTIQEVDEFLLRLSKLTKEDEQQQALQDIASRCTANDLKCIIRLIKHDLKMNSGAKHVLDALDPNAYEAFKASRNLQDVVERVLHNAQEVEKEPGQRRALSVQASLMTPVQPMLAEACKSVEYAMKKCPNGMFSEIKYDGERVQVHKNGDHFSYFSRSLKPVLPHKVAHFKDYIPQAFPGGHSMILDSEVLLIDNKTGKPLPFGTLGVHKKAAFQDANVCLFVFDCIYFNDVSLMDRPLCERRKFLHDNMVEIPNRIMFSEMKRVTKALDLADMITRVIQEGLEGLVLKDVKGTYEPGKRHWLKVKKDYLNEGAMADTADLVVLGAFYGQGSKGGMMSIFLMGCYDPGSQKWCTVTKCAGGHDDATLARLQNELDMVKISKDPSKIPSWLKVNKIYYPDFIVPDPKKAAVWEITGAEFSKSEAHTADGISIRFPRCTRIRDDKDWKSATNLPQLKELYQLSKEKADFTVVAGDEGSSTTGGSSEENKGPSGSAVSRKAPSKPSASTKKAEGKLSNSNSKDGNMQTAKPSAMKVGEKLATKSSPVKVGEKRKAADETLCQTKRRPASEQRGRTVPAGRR
Summary of the method: (§1)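 Ligation joins an AF488-labelled and a BHQ1-labelled oligonucleotide. After denaturation and renaturation with a 20-fold excess of unlabelled competitor strand, the product forms a quenched hairpin, so joining is read as loss of 518 nm fluorescence. Ligase III used a nicked duplex; ligase IV used two duplexes with short complementary single-strand ends.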

human DNA ligase IV = human DNA ligase IV (Homo sapiens, UniProt P49917); test: as above; assay type: biochemical
Summary of the method: as §1

MCF10A cells [1] = test: Screen for potentiation of DNA damaging agents (MMS, camptothecin, cis-platinum, 3 aminobenzamide, ionizing radiation); assay type: cell-based, human; details: 1 = no sensitization; for MMS: Ratios of IC50 MCF10A: compound alone vs combination with MMS (100 μM)
Excerpt: The 192 human DNA ligase inhibitors were screened in parallel for effects on proliferation and the ability to potentiate the effects of several DNA damaging agents using two cell human lines, a colon cancer line HCT116 and a normal breast epithelial cell line MCF10A using a Biomek FX Laboratory Automation Workstation as described (23). The DNA damaging agents used, methyl methanesulfonate (MMS), camptothecin, cis-platinum, 3 aminobenzamide and ionizing radiation, are representatives of classes of agents used to treat cancer. Briefly, HCT116 and MCF10A cells were plated in 96 well plates such that the cultures were about 80% confluent after 5 days incubation. Compounds were added to the cultures at either 15 μM or 50 μM 1 day after plating. After incubation for 3 days, cell lysed in a solution containing 1.2% Igepal CA-630 and SYBR green that stains DNA (1:1000, Molecular Probes, Eugene, Oreg.). Subsequently, fluorescence was measured per well. The studies with DNA damaging agents were performed as follows. […] Cultures were incubated for 3 days and then treated as above.

MCF10A cells [2] = test: MTT cell growth assay; assay type: cell-based, human; details: Homo sapiens, MCF-10A
Description: (§2) The activity of hits from the initial screen was further validated using the MTT assay. Briefly, MCF10A and HCT116 cells were seeded in 96 well plates at 300 and 1200 cells per well, respectively, and allowed to adhere overnight. The following day, serial dilutions of compounds in media were added to the cells in a final volume 200 μl. After incubation for 5 days, MTT reagent (3-(4,5-dimthylthiazol-2-yl)-2,5-diphenyltatrazolium) was added and incubation was continued for 4 h. Formazan crystals generated by reduction of the MTT reagent in mitochondria were solubilized with isopropanol prior to the measurement of absorbance at 560 nm wavelength in a plate reader.
To extend the results of the […] cell culture screening assay, a subset of compounds were tested in larger cultures. Different concentrations of Compounds 67 and 151 were added to asynchronous subconfluent populations of HCT116 and MCF10A cells. Asynchronous subconfluent populations of HCT116 and MCF10A cells were pre-treated with different concentrations of compound 64 prior to the addition of 3 aminobenzamide (2 mM) MMS (100 μM) or cis-platinum (1 μM). After incubation for 5 days, cell growth was measured by the MTT assay (16).

HCT116 and MCF10A cells [3] = test: Cell proliferation screen, result stated for one or both cell lines; assay type: cell-based; details: Homo sapiens, read-out: IC50 of inhibition of proliferation
HCT116 cells [4] = test: Screen for potentiation of DNA damaging agents (MMS, camptothecin, cis-platinum, 3 aminobenzamide, ionizing radiation); assay type: cell-based, human; details: compound alone vs combination with MMS (100 μM); 1 = no sensitization
Excerpt: (§3) The 192 human DNA ligase inhibitors were screened in parallel for effects on proliferation and the ability to potentiate the effects of several DNA damaging agents using two cell human lines, a colon cancer line HCT116 and a normal breast epithelial cell line MCF10A using a Biomek FX Laboratory Automation Workstation as described (23). The DNA damaging agents used, methyl methanesulfonate (MMS), camptothecin, cis-platinum, 3 aminobenzamide and ionizing radiation, are representatives of classes of agents used to treat cancer. Briefly, HCT116 and MCF10A cells were plated in 96 well plates such that the cultures were about 80% confluent after 5 days incubation. Compounds were added to the cultures at either 15 μM or 50 μM 1 day after plating. After incubation for 3 days, cell lysed in a solution containing 1.2% Igepal CA-630 and SYBR green that stains DNA (1:1000, Molecular Probes, Eugene, Oreg.). Subsequently, fluorescence was measured per well. The studies with DNA damaging agents were performed as follows. […] For ionizing radiation, cells were pre-incubated with the compounds at 50 μM for 1 hour prior to exposure to 2 gray of ionizing radiation. Cultures were incubated for 3 days and then treated as above.

HCT116 and MCF10A cells [5] = test: Screen for potentiation of DNA damaging agents, cell line not stated with the result; assay type: cell-based, human; details: 50 μM, MMS 100 μM
Excerpt: as §3

HCT116 cells [6] = test: MTT cell growth assay; assay type: cell-based, human; details: Homo sapiens, HCT-116
Description: as §2
After incubation for 5 days, cell growth was measured by the MTT assay (16).

T4 DNA ligase = biological target: T3, T4 DNA ligase (Enterobacteria phage T4, UniProt P00970); test: High-throughput fluorescence-based DNA joining assay, non-specific inhibitor control; assay type: biochemical, bacteriophage T4
T3 construct: purchased NEB
T3 sequence (P00970 1-487): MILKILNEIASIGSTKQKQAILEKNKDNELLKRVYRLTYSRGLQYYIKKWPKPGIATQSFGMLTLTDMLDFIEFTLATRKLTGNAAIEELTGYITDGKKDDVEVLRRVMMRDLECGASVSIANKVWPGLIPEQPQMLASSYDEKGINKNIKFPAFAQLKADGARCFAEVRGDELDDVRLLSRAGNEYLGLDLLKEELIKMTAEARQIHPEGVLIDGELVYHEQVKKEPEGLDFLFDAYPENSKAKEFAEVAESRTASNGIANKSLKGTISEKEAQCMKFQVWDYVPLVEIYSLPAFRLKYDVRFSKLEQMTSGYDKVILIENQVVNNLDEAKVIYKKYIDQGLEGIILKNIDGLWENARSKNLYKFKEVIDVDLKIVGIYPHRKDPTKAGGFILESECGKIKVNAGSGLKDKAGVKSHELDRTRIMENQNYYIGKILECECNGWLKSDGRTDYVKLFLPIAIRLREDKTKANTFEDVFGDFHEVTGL
Description: Candidate ligase inhibitors identified by CADD were assayed for their ability to inhibit hLigI and T4 DNA ligase using a high-throughput, fluorescence energy transfer-based DNA joining assay (22). Duplicate reactions (30 μL) containing 10 pmol of nicked DNA substrate and either 0.25 pmol of hLigI or 10 units of T4 DNA ligase were incubated in the presence or absence of 100 μmol/L of the putative inhibitor. DNA binding by the candidate DNA ligase inhibitors was measured by displacement of ethidium bromide from DNA as previously described (30).
In addition, to identify compounds that may be non-specific inhibitors of DNA joining, the 192 compounds were also assayed for their ability to inhibit bacteriophage T4 DNA ligase, an enzyme that utilizes the same reaction mechanism as hLigI, has similar adenylation and OB-fold domains but lacks a DBD domain. (6) Although this is also an ATP-dependent DNA ligase, it lacks the domain containing the binding pocket targeted by the in silico screen. Compounds that inhibited T4 DNA ligase were eliminated as non-specific inhibitors that most likely bind to the DNA.

hLigIV/XRCC4 = hLigIV/XRCC4 (Homo sapiens, UniProt P49917); test: Radioactive gel-based DNA ligation assay; assay type: biochemical; design: concentration or dose not given beside the values
[7] = read-out: % of inhibition @ 100 μM (Helen's data) hLigI
[8] = read-out: % of inhibition @ 100 μM (Helen's data) hLigIII
[9] = 100 μM, read-out: % of inhibition @ 100 μM (Helen's data) hLigIV
[10] = cell growth, compound alone, read-out: IC50 (μM) MCF10A
[11] = sections 'high concentrations (~50 μM)' and 'active in vitro that decreased cell growth', same figures given in μM elsewhere in Table 6, read-out: IC50 MCF10A (head without unit)

Chain of human DNA ligase IV (P49917 whole entry): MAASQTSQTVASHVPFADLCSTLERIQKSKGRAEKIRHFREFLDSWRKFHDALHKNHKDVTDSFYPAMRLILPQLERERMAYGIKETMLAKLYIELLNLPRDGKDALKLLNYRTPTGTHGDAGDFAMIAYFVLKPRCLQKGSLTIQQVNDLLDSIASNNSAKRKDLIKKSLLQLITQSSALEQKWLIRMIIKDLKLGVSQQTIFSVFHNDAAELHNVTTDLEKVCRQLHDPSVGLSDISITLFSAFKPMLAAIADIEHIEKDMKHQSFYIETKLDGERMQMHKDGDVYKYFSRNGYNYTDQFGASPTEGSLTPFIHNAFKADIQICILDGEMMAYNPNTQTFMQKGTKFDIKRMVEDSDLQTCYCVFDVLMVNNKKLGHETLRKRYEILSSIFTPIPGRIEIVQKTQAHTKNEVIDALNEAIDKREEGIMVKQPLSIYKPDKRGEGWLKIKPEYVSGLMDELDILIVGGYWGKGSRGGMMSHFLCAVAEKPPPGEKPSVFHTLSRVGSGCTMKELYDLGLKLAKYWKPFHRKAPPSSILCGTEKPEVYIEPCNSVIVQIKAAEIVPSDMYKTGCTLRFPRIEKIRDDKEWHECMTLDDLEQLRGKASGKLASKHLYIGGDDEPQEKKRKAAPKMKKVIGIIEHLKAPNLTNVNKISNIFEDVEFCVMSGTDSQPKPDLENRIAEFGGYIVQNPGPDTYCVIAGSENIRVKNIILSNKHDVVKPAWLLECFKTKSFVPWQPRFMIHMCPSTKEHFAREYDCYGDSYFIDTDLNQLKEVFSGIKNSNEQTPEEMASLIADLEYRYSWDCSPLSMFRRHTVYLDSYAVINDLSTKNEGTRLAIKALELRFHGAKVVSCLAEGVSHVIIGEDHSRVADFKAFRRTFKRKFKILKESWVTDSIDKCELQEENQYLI
Chain of human DNA ligase IV (Q13426 whole entry partner): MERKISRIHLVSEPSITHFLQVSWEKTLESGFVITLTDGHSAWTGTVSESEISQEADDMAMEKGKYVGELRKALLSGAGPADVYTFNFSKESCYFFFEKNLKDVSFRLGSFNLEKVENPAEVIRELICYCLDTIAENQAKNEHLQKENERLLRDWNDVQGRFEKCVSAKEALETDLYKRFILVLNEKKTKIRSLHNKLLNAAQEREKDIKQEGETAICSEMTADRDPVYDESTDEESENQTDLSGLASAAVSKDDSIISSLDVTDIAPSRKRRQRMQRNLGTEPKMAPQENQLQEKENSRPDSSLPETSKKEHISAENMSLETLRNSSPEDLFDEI
T1 sequence (P18858 whole entry): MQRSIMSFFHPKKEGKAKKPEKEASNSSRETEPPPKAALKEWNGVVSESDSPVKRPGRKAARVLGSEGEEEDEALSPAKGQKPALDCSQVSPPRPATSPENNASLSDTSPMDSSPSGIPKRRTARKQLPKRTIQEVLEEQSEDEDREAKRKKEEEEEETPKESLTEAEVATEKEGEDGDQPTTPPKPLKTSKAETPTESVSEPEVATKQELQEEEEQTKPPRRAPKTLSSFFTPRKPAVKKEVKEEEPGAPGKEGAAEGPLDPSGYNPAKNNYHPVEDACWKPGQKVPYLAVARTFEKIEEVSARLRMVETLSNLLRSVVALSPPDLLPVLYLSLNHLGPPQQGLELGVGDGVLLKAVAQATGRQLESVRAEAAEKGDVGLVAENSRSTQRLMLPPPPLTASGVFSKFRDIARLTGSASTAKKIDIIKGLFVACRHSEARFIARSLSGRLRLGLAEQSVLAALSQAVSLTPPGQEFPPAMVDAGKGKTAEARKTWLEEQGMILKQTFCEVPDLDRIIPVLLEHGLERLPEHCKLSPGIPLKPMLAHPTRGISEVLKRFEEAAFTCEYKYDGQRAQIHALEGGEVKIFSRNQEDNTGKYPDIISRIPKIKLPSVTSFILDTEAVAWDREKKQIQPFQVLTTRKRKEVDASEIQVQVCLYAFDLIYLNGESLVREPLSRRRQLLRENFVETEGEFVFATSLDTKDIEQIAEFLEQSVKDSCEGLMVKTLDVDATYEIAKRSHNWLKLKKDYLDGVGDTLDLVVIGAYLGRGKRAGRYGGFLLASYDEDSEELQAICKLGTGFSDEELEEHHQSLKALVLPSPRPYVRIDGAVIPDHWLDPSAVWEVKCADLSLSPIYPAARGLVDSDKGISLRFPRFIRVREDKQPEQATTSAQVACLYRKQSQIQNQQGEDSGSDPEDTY
Chain of hLigIV/XRCC4 (P49917 whole entry): as the sequence (P49917 whole entry) above
Chain of hLigIV/XRCC4 (Q13426 whole entry partner): as the sequence (Q13426 whole entry partner) above

SMILES | inhibition at 100 µM (hLigI; [7]) | inhibition at 100 µM (human DNA ligase III; [8]) | inhibition at 100 µM (human DNA ligase IV; [9]) | MMS: Ratios of IC50 MCF10A (MCF10A cells [1]) | IC50 (MCF10A cells [2]; [10]) | IC50 (HCT116 and MCF10A cells [3]) | IC50 (MCF10A cells [2]; [11]) | further results
O=C(O)c1ccccc1Nc1ccc([N+](=O)[O-])c2nonc12 [Compound 16] | < 20% | < 20% | < 20% | 1 | 6 µM | < 20 µM |  | 
C=CCN1C(=O)/C(=N\NC(=O)c2ccccc2O)c2ccccc21 [Compound 78] |  | > 20% |  | 1.5 | 7.5 µM | < 20 µM | 7.5 µM | inhibition at 100 µM (human DNA ligase IV; read-out: % of inhibition @ 100 μM (Helen's data) hLigIV): < 20%; MMS: Ratios of IC50 HCT116 (HCT116 cells [4]): 1; IC50 ratios of non- and 3-AB treated cells MCF10A (MCF10A cells [1]; compound alone vs combination with 3-AB (2 mM)): 1; enhancement of the cytostatic effect of MMS (HCT116 and MCF10A cells [5]): enhance the cytostatic effect of MMS; IC50 (HCT116 cells [6]; cell growth, compound alone, read-out: IC50 (μM) HCT116): 10 µM; IC50 (HCT116 cells [6]; sections 'high concentrations (~50 μM)' and 'active in vitro that decreased cell growth', same figures given in μM elsewhere in Table 6, read-out: IC50 HCT116 (head without unit)): 10 µM
CCn1nc(N)c2c(O)nc(O)cc21 [Compound 93] |  |  |  |  |  |  |  | % activity Inhibition hLigI 100 uM (hLigI; 100 uM): Ø; inhibition at 100 µM (hLigI; read-out: In vitro % inhib hLigI 100): 0%; inhibition at 100 µM (human DNA ligase III; 100 μM, read-out: In vitro % inhib hLigIII 100): 0%; % activity Inhibition hLigIII 100 uM (human DNA ligase III; 100 uM, Ø not defined (0 in Table 5A)): Ø; inhibition at 100 µM (human DNA ligase IV; 100 μM, read-out: In vitro % inhib hLigIV 100): 37 ± 6%; inhibition at 100 µM (human DNA ligase IV; 100 uM, Ø not defined (0 in Table 5A), read-out: % activity Inhibition hLigIV 100 uM): 37.6 ± 6.1%; inhibition of human DNA ligase IV, in words (human DNA ligase IV; in vitro screen): specific for DNA ligase IV; % activity Inhibition LigT4 100 uM (T4 DNA ligase; 100 uM): Ø; inhibition at 100 µM (T4 DNA ligase; 100 μM, read-out: In vitro % inhib T4 100): 0%; % activity Inhibition hLigIV gel (hLigIV/XRCC4): Ø
O=C(Nc1nc2ccccc2s1)c1ccc(Cl)c([N+](=O)[O-])c1 [Compound 165] | < 20% | < 20% | 37.2% | 1 | 3 µM | < 20 µM | 3 µM | % of inhibition @ 100 μM (Helen's data) hLigIV (human DNA ligase IV; 100 μM): 37%
Nn1cnnc1N/N=C/c1cc([N+](=O)[O-])c(Cl)cc1Cl [Compound 195] | 26% | 24% | < 20% | 1.2 | 3 µM | < 20 µM | 3 µM | 
